Measurements from ChEMBL document CHEMBL1201862, “PubChem BioAssay data set” (2004).
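Each compound was tested at five concentrations against cells in 96-well plates for 48 hours. Abbreviation: GI50, concentration required for 50% inhibition of growth.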 Calls of active or inactive are those of the source. Rule as the data show it: active = GI50 up to about 1.1 µM and inactive = higher.

Tests used:
Assay in all cases: NCI-60 cell line screen, 48 h
786-0 = test system: 786-0
A498 = test system: A498
A549 = test system: A549
ACHN = test system: ACHN
CAKI-1 = test system: CAKI-1
CCRF-CEM = test system: CCRF-CEM
COLO 205 = test system: COLO 205
DLD-1 = test system: DLD-1
DMS-114 = test system: DMS-114
DMS-273 = test system: DMS-273
EKVX = test system: EKVX
HCC 2998 = test system: HCC 2998
HCT-116 = test system: HCT-116
HCT-15 = test system: HCT-15
HOP-62 = test system: HOP-62
HT-29 = test system: HT-29
IGROV-1 = test system: IGROV-1
K562 = test system: K562
KM-20L2 = test system: KM-20L2
KM12 = test system: KM12
LOX IMVI = test system: LOX IMVI
LXFL 529 = test system: LXFL 529
M14 = test system: M14
MOLT-4 = test system: MOLT-4
Malme-3M = test system: Malme-3M
NCI-H226 = test system: NCI-H226
NCI-H460 = test system: NCI-H460
NCI-H522 = test system: NCI-H522
OVCAR-3 = test system: OVCAR-3
OVCAR-5 = test system: OVCAR-5
OVCAR-8 = test system: OVCAR-8
RPMI-8226 = test system: RPMI-8226
RXF 393 = test system: RXF 393
RXF 631 = test system: RXF 631
SF-268 = test system: SF-268
SF-295 = test system: SF-295
SF-539 = test system: SF-539
SK-MEL-2 = test system: SK-MEL-2
SK-MEL-5 = test system: SK-MEL-5
SK-OV-3 = test system: SK-OV-3
SN12C = test system: SN12C
SNB-19 = test system: SNB-19
SNB-75 = test system: SNB-75
SNB-78 = test system: SNB-78
SW-620 = test system: SW-620
TK-10 = test system: TK-10
U-251 = test system: U-251
UACC-257 = test system: UACC-257
UACC-62 = test system: UACC-62
UO-31 = test system: UO-31
XF498 = test system: XF498
HL-60 = test system: HL-60
HOP-92 = test system: HOP-92
M19-MEL = test system: M19-MEL
NCI-H23 = test system: NCI-H23
OVCAR-4 = test system: OVCAR-4
SK-MEL-28 = test system: SK-MEL-28

Question: How did the GI50 (786-0) turn out when `O=c1cc(O)cc2n1CCC2` was run?
Answer: > 100 µM (inactive)

Question: What about the GI50 (A498) of the same compound?
Answer: > 100 µM (inactive)

Question: What about the GI50 (A549) of the same compound?
Answer: > 100 µM (inactive)

Question: And the GI50 (ACHN)?
Answer: > 100 µM (inactive)

Question: And the GI50 (CAKI-1)?
Answer: > 100 µM (inactive)

Question: What about the GI50 (CCRF-CEM) of the same compound?
Answer: > 100 µM (inactive)

Question: What about the GI50 (COLO 205) of the same compound?
Answer: > 100 µM (inactive)

Question: What about the GI50 (DLD-1) of the same compound?
Answer: > 100 µM (inactive)

Question: What about the GI50 (DMS-114) of the same compound?
Answer: > 100 µM (inactive)

Question: What about the GI50 (DMS-273) of the same compound?
Answer: > 100 µM (inactive)

Question: And the GI50 (EKVX)?
Answer: > 100 µM (inactive)

Question: What about the GI50 (HCC 2998) of the same compound?
Answer: > 100 µM (inactive)

Question: And the GI50 (HCT-116)?
Answer: > 100 µM (inactive)

Question: And the GI50 (HCT-15)?
Answer: > 100 µM

Question: And the GI50 (HOP-62)?
Answer: > 100 µM (inactive)

Question: And the GI50 (HT-29)?
Answer: > 100 µM (inactive)

Question: And the GI50 (IGROV-1)?
Answer: > 100 µM (inactive)

Question: What about the GI50 (K562) of the same compound?
Answer: > 100 µM (inactive)

Question: What about the GI50 (KM-20L2) of the same compound?
Answer: > 100 µM (inactive)

Question: What about the GI50 (KM12) of the same compound?
Answer: > 100 µM (inactive)

Question: What about the GI50 (LOX IMVI) of the same compound?
Answer: > 100 µM (inactive)

Question: What about the GI50 (LXFL 529) of the same compound?
Answer: > 100 µM (inactive)

Question: What about the GI50 (M14) of the same compound?
Answer: > 100 µM (inactive)

Question: What about the GI50 (MOLT-4) of the same compound?
Answer: > 100 µM (inactive)

Question: And the GI50 (Malme-3M)?
Answer: > 100 µM (inactive)

Question: And the GI50 (NCI-H226)?
Answer: > 100 µM (inactive)

Question: What about the GI50 (NCI-H460) of the same compound?
Answer: > 100 µM (inactive)

Question: And the GI50 (NCI-H522)?
Answer: > 100 µM (inactive)

Question: What about the GI50 (OVCAR-3) of the same compound?
Answer: > 100 µM (inactive)

Question: What about the GI50 (OVCAR-5) of the same compound?
Answer: > 100 µM (inactive)

Question: What about the GI50 (OVCAR-8) of the same compound?
Answer: > 100 µM (inactive)

Question: What about the GI50 (RPMI-8226) of the same compound?
Answer: > 100 µM (inactive)

Question: And the GI50 (RXF 393)?
Answer: > 100 µM (inactive)

Question: What about the GI50 (RXF 631) of the same compound?
Answer: > 100 µM (inactive)

Question: And the GI50 (SF-268)?
Answer: > 100 µM (inactive)

Question: What about the GI50 (SF-295) of the same compound?
Answer: > 100 µM (inactive)

Question: And the GI50 (SF-539)?
Answer: > 100 µM (inactive)

Question: And the GI50 (SK-MEL-2)?
Answer: > 100 µM (inactive)

Question: What about the GI50 (SK-MEL-5) of the same compound?
Answer: > 100 µM (inactive)

Question: And the GI50 (SK-OV-3)?
Answer: > 100 µM (inactive)

Question: And the GI50 (SN12C)?
Answer: > 100 µM (inactive)

Question: What about the GI50 (SNB-19) of the same compound?
Answer: > 100 µM (inactive)

Question: What about the GI50 (SNB-75) of the same compound?
Answer: > 100 µM (inactive)

Question: And the GI50 (SNB-78)?
Answer: > 100 µM (inactive)

Question: And the GI50 (SW-620)?
Answer: > 100 µM (inactive)

Question: And the GI50 (TK-10)?
Answer: > 100 µM (inactive)

Question: What about the GI50 (U-251) of the same compound?
Answer: > 100 µM (inactive)

Question: What about the GI50 (UACC-257) of the same compound?
Answer: > 100 µM (inactive)

Question: And the GI50 (UACC-62)?
Answer: > 100 µM (inactive)

Question: What about the GI50 (UO-31) of the same compound?
Answer: > 100 µM (inactive)

Question: What about the GI50 (XF498) of the same compound?
Answer: > 100 µM (inactive)

Question: What does the source list for `Cc1cc2c3c(coc3c1-c1c(C)cc3c4c(coc14)C(=O)C(O)=C3C(C)C)C(=O)C(O)=C2C(C)C`?
Answer: GI50 (786-0): 10.1 µM (inactive); GI50 (A498): 12.2 µM (inactive); GI50 (A549): 4.05 µM (inactive); GI50 (ACHN): 3.51 µM (inactive); GI50 (CAKI-1): 12.8 µM (inactive); GI50 (CCRF-CEM): 3.58 µM (inactive); GI50 (COLO 205): 2.41 µM (inactive); GI50 (DLD-1): 4.6 µM (inactive); GI50 (DMS-114): 2.63 µM (inactive); GI50 (DMS-273): 4 µM (inactive); GI50 (EKVX): 2.28 µM (inactive); GI50 (HCC 2998): 3.68 µM (inactive); GI50 (HCT-116): 3.54 µM (inactive); GI50 (HCT-15): 3.94 µM; GI50 (HL-60): 3.42 µM (inactive); GI50 (HOP-62): 11.5 µM (inactive); GI50 (HOP-92): 2.62 µM (inactive); GI50 (HT-29): 3.94 µM (inactive); GI50 (IGROV-1): 3.99 µM (inactive); GI50 (K562): 3.26 µM (inactive); GI50 (KM-20L2): 6.04 µM (inactive); GI50 (KM12): 4.3 µM (inactive); GI50 (LOX IMVI): 5.7 µM (inactive); GI50 (LXFL 529): 3.77 µM (inactive); GI50 (M14): 11.7 µM (inactive); GI50 (M19-MEL): 7.03 µM (inactive); GI50 (MOLT-4): 3.66 µM (inactive); GI50 (Malme-3M): 15.6 µM (inactive); GI50 (NCI-H226): 10.1 µM (inactive); GI50 (NCI-H23): 3.53 µM (inactive); GI50 (NCI-H460): 4.37 µM (inactive); GI50 (NCI-H522): 5.92 µM (inactive); GI50 (OVCAR-3): 5.45 µM (inactive); GI50 (OVCAR-4): 6.79 µM (inactive); GI50 (OVCAR-5): 17.9 µM (inactive); GI50 (OVCAR-8): 4.72 µM (inactive); GI50 (RPMI-8226): 4.68 µM (inactive); GI50 (RXF 393): 10.3 µM (inactive); GI50 (RXF 631): 8.71 µM (inactive); GI50 (SF-268): 5.08 µM (inactive); GI50 (SF-295): 5.37 µM (inactive); GI50 (SF-539): 3.44 µM (inactive); GI50 (SK-MEL-28): 10.1 µM (inactive); GI50 (SK-MEL-2): 4.74 µM (inactive); GI50 (SK-MEL-5): 15.1 µM (inactive); GI50 (SK-OV-3): 19.2 µM (inactive); GI50 (SN12C): 10.1 µM (inactive); GI50 (SNB-19): 4.35 µM (inactive); GI50 (SNB-75): 10.9 µM (inactive); GI50 (SNB-78): 9.44 µM (inactive); GI50 (SW-620): 5.2 µM (inactive); GI50 (TK-10): 14.5 µM (inactive); GI50 (U-251): 3.66 µM (inactive); GI50 (UACC-257): 14.3 µM (inactive); GI50 (UACC-62): 3.73 µM (inactive); GI50 (UO-31): 16.6 µM (inactive); GI50 (XF498): 4.79 µM (inactive)
